EC50 data for 20 compounds are collected here from paper PMC6522510 (Nature Communications, 2019).

The structures appear in SMILES notation.

Experiment in all cases: cells
Holding throughout (parameters): species or system AML cell lines (8); Secondary HTS, 10-point dose-response in triplicate, Cell Titer Glo viability, four-parameter fit EC50
A general note: ATP-based viability assays read luminescence as a measure of living cells.

In one experiment the test system is ML-2. Particulars: Homo sapiens, ML-2, 72 h, read-out: ML-2.
The subject of the next experiment is CMK. Particulars: Homo sapiens, CMK, 72 h, read-out: CMK.
The next experiment relates to CMS. Particulars: 72 h, read-out: CMS.
For another experiment, the system named is M07e. Particulars: M-07e, 72 h, read-out: M07e.
The subject of a further experiment is U937. Particulars: Homo sapiens, U-937, 72 h, read-out: U937.
Another experiment relates to MV4-11. Particulars: Homo sapiens, MV4-11, 72 h, read-out: MV4-11.
The subject of a further experiment is MOLM-13. Particulars: Homo sapiens, MOLM-13, 72 h, read-out: MOLM-13.
A further experiment concerns CHRF288-11. Particulars: 72 h, read-out: CHRF288-11.

Regarding `C[C@H]1C[C@H]2[C@@H]3CCC4=CC(=O)C=C[C@]4(C)[C@@]3(F)[C@@H](O)C[C@]2(C)[C@@]1(O)C(=O)CO` [BETAMETHASONE], the EC50 with ML-2, in the experiment on CMK, in the experiment with CMS, in the experiment with M07e, in the experiment on U937 and with MV4-11 was more than 10 µM throughout. Further, the EC50 with MOLM-13 and in the experiment with CHRF288-11 was more than 10 µM each time.
In the case of `c1ccc2c(-c3cnn4cc(-c5ccc(N6CCNCC6)cc5)cnc34)ccnc2c1` [SJ000834146, LDN-193189], the EC50 came out at 0.18 µM with ML-2; 1.1 µM with CMK; 0.53 µM in the experiment on CMS; 0.62 µM in the experiment on M07e; 0.19 µM in the experiment on U937; 0.19 µM with MV4-11. For the same compound, the EC50 in the experiment with MOLM-13 is 0.19 µM; in the experiment on CHRF288-11 it was 0.36 µM.
Regarding `CC(/C=C/C(=O)NO)=C\[C@@H](C)C(=O)c1ccc(N(C)C)cc1` [SJ000534770, TRICHOSTATIN A], the EC50 in the experiment with ML-2 amounted to 0.114 µM; with CMK, 0.047 µM; in the experiment on CMS it was 0.0442 µM; in the experiment on M07e, 0.09 µM; in the experiment on U937, 0.0364 µM; with MV4-11, 0.042 µM. Further, the EC50 with MOLM-13 came out at 0.0771 µM; in the experiment on CHRF288-11, 0.0434 µM.
As for `O=C(O)C(Cc1c[nH]c2ccccc12)N1C(=O)c2ccccc2C1=O` (stereo not shown) [SJ000784279, RG108], the EC50 in the experiment on ML-2, with CMK, in the experiment with CMS, in the experiment on M07e, in the experiment with U937 and in the experiment on MV4-11 was more than 10 µM in each case. The EC50 in the experiment on MOLM-13 and in the experiment on CHRF288-11 was more than 10 µM each time.
With `CS(=O)(=O)c1ccc(C(=O)Nc2ccc(Cl)c(-c3ccccn3)c2)c(Cl)c1` [VISMODEGIB], the EC50 in the experiment with ML-2, in the experiment on CMK, in the experiment with CMS, in the experiment on M07e, in the experiment on U937 and in the experiment on MV4-11 was more than 10 µM each time. Moreover, the EC50 in the experiment on MOLM-13 and in the experiment on CHRF288-11 was more than 10 µM each time.
As to `CC(=O)Nc1ccc(NC(=S)NC(=O)c2ccc(C(C)(C)C)cc2)cc1` [SJ000784260, TENOVIN-1], the EC50 in the experiment with ML-2 was more than 10 µM; with CMK, more than 10 µM; in the experiment on CMS, 0.77 µM; in the experiment with M07e, more than 10 µM; in the experiment on U937 it was more than 10 µM; in the experiment on MV4-11 it was more than 10 µM. The EC50 in the experiment with MOLM-13 and in the experiment with CHRF288-11 was more than 10 µM throughout.
For the compound `CCCCCCCCCCCCCCCc1cccc(O)c1C(=O)O` [SJ000785900, ANACARDIC ACID], the EC50 with ML-2, with CMK, in the experiment on CMS, in the experiment on M07e, in the experiment on U937 and in the experiment with MV4-11 was more than 10 µM in each case. The EC50 with MOLM-13 and in the experiment on CHRF288-11 was more than 10 µM in each case.
In the case of `COc1ccc(-c2cc3c(C)nc(N)nc3n([C@H]3CC[C@H](OCCO)CC3)c2=O)cn1` [SJ000784313, PF-04691502], the EC50 was 0.23 µM in the experiment with ML-2; 1.4 µM in the experiment with CMK; 0.34 µM in the experiment on CMS; more than 10 µM in the experiment with M07e; 0.6 µM in the experiment on U937; 0.001 µM with MV4-11. Moreover, the EC50 was 2.1 µM in the experiment on MOLM-13 and 4.3 µM with CHRF288-11.
With `CNC(=O)c1ccccc1Nc1nc(Nc2ccc(N3CCOCC3)cc2OC)ncc1Cl` [SJ000822451, NVP-TAE226], the EC50 in the experiment with ML-2 was 2.5 µM; in the experiment on CMK it was 0.2 µM; in the experiment on CMS, more than 10 µM; in the experiment with M07e, 7.6 µM; in the experiment on U937, 4.5 µM; with MV4-11, more than 10 µM. Further, the figures for the EC50 in the experiment with MOLM-13 and with CHRF288-11 were 0.7 µM and 9.8 µM, respectively.
Consider `Fc1ccc(CNc2ncnc3ccc(F)cc23)cc1` [SJ000785893, SPAUTIN-1], for which the EC50 with ML-2 is more than 10 µM; in the experiment with CMK, more than 10 µM; with CMS it was more than 10 µM; in the experiment on M07e, more than 10 µM; in the experiment on U937 it was 3 µM; in the experiment with MV4-11 it was more than 10 µM. Besides, the EC50 in the experiment on MOLM-13 and with CHRF288-11 was more than 10 µM in each case.
With `FC(F)c1nc2ccccc2n1-c1nc(N2CCOCC2)nc(N2CCOCC2)n1` [ZSTK-474], the EC50 in the experiment on ML-2, in the experiment with CMK, in the experiment on CMS, in the experiment with M07e, with U937 and in the experiment on MV4-11 was more than 10 µM each time. Besides, the EC50 with MOLM-13 and in the experiment with CHRF288-11 was more than 10 µM each time.
As for `O=C(NCC1(c2nc(-c3ccccc3)cs2)CCOCC1)c1cccc(-c2noc(C(F)(F)F)n2)c1` [SJ000833838, TMP269], the EC50 was more than 10 µM with ML-2; more than 10 µM in the experiment on CMK; more than 10 µM in the experiment on CMS; 0.19 µM in the experiment with M07e; more than 10 µM in the experiment with U937; more than 10 µM with MV4-11. Further, the EC50 with MOLM-13 and with CHRF288-11 was more than 10 µM each time.
As to `O=C(c1cn(Cc2cncn2Cc2ccc(Br)cc2)cc1-c1cccc2ccccc12)N1CCOCC1` [SJ000803701, LB 42708], the EC50 with ML-2 was 2.3 µM; with CMK, more than 10 µM; in the experiment with CMS, 3.4 µM; in the experiment with M07e, more than 10 µM; in the experiment with U937, more than 10 µM; in the experiment on MV4-11, 5 µM. Also, the EC50 is 2.5 µM in the experiment with MOLM-13 and more than 10 µM in the experiment with CHRF288-11.
Turning to `N[C@H](CCC(=O)N[C@@H](Cc1c[nH]c2ccccc12)C(=O)O)C(=O)O` [SJ000795988, GOLOTIMOD], the EC50 in the experiment on ML-2, in the experiment with CMK, in the experiment with CMS, in the experiment with M07e, with U937 and in the experiment on MV4-11 was more than 10 µM in each case. For the same compound, the EC50 in the experiment on MOLM-13 and in the experiment with CHRF288-11 was more than 10 µM each time.
`CN[C@@H]1C[C@H]2O[C@@](C)([C@@H]1OC)n1c3ccccc3c3c4c(c5c6ccccc6n2c5c31)C(=O)N[C@H]4O` [SJ000784325, 7-HYDROXYSTAUROSPORINE]: the EC50 in the experiment on ML-2 is 0.25 µM; in the experiment with CMK it was 0.23 µM; in the experiment with CMS, 0.41 µM; in the experiment on M07e it was more than 10 µM; with U937, 0.26 µM; in the experiment on MV4-11 it was 0.19 µM. Further, the EC50 came to 0.065 µM in the experiment on MOLM-13 and 0.35 µM with CHRF288-11.
For the compound `CC(C)(O)[C@@H]1CC[C@](C)([C@H]2[C@@H](O)C[C@@]3(C)[C@@H]4C[C@H](O[C@@H]5O[C@H](CO)[C@@H](O)[C@H](O)[C@H]5O)[C@H]5C(C)(C)[C@@H](O[C@@H]6OC[C@@H](O)[C@H](O)[C@H]6O)CC[C@@]56C[C@@]46CC[C@]23C)O1` [SJ000785909, ASTRAGALOSIDE IV], the EC50 was 0.87 µM in the experiment on ML-2; more than 10 µM in the experiment with CMK; more than 10 µM in the experiment with CMS; more than 10 µM in the experiment with M07e; more than 10 µM in the experiment on U937; more than 10 µM with MV4-11. Moreover, the EC50 in the experiment with MOLM-13 is 4.3 µM; in the experiment on CHRF288-11, 0.81 µM.
`O=C(NC(NC(=S)Nc1ccc(F)c([N+](=O)[O-])c1)C(Cl)(Cl)Cl)C(c1ccccc1)c1ccccc1` (stereo not shown) [SJ000786007, CGK 733]: the EC50 in the experiment on ML-2, in the experiment with CMK, in the experiment on CMS, in the experiment on M07e, in the experiment on U937 and with MV4-11 was more than 10 µM in each case. Also, the EC50 in the experiment with MOLM-13 and in the experiment with CHRF288-11 was more than 10 µM each time.
As for `O=c1[nH]c(=O)n([C@H]2C[C@H](O)[C@@H](CO)O2)cc1/C=C/Br` [BRIVUDINE], the EC50 with ML-2, in the experiment on CMK, in the experiment on CMS, in the experiment on M07e, in the experiment with U937 and with MV4-11 was more than 10 µM in each case. Further, the EC50 with MOLM-13 and in the experiment on CHRF288-11 was more than 10 µM each time.
Turning to `O=C(c1ccc(Cl)cc1Cl)n1nnc2ccccc21` [SJ000142379, ITSA1], the EC50 in the experiment on ML-2 is 6.2 µM; in the experiment on CMK, more than 10 µM; in the experiment with CMS, more than 10 µM; in the experiment with M07e, more than 10 µM; in the experiment on U937 it was more than 10 µM; with MV4-11, more than 10 µM. Moreover, the EC50 in the experiment on MOLM-13 came to 5.3 µM; in the experiment on CHRF288-11 it was 6.1 µM.
Regarding `O=c1[nH]c2ccccc2c2ccccc12` [SJ000288131, 6(5H)-PHENANTHRIDINONE], the EC50 with ML-2 was 2.7 µM; with CMK it was more than 10 µM; with CMS it was more than 10 µM; in the experiment on M07e, more than 10 µM; in the experiment on U937 it was more than 10 µM; in the experiment with MV4-11, more than 10 µM. The EC50 with MOLM-13 worked out at 2 µM; in the experiment with CHRF288-11 it was 2.3 µM.
